#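 Values below derive from 48-hour exposures of cells grown in 96-well plates, with endpoints linearly interpolated between the two concentrations bracketing the appropriate inhibition level. TGI: concentration producing complete growth inhibition.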
# Key:
# Assay in all cases: NCI-60 cell line screen, 48 h
# COLO 205 colon = system: COLO 205 colon
# HS 578T breast = system: HS 578T breast
# OVCAR-4 ovarian = system: OVCAR-4 ovarian
# RXF 393 renal = system: RXF 393 renal
# SK-MEL-28 melanoma = system: SK-MEL-28 melanoma
# SN12C renal = system: SN12C renal
# TK-10 renal = system: TK-10 renal
# U251 CNS = system: U251 CNS
# UACC-257 melanoma = system: UACC-257 melanoma
# UO-31 renal = system: UO-31 renal
Structure (SMILES),TGI (COLO 205 colon),TGI (HS 578T breast),TGI (OVCAR-4 ovarian),TGI (RXF 393 renal),TGI (SK-MEL-28 melanoma),TGI (SN12C renal),TGI (TK-10 renal),TGI (U251 CNS),TGI (UACC-257 melanoma),TGI (UO-31 renal)
COc1ccc(/C=C2\CCS(=O)(=O)c3ccccc3C2=O)cc1,30.5 µM,82.8 µM,58.8 µM,46.4 µM,72 µM,77.3 µM,61.6 µM,37.7 µM,56.5 µM,38 µM
CCOC(=O)C1(C(=O)OCC)OC(C)=NC1(C(=O)OC)C(=O)OC,> 100 µM,> 100 µM,> 100 µM,> 100 µM,> 100 µM,> 100 µM,> 100 µM,> 100 µM,> 100 µM,> 100 µM
CC(C)=CC(Cc1ccccc1)S(=O)(=O)c1nc2ccccc2s1 (stereo not given),34.9 µM,> 80 µM,37.1 µM,41.9 µM,32.3 µM,31.8 µM,35.8 µM,29.4 µM,54.2 µM,27.5 µM
CC1SCc2nc3ccccc3n21 (stereo not given),> 100 µM,> 100 µM,> 100 µM,> 100 µM,> 100 µM,> 100 µM,> 100 µM,> 100 µM,> 100 µM,> 100 µM
CCOC(=O)C1c2[nH]c3ccccc3c2CCN1C(=O)c1ccc(OC)o1 (stereo not given),> 10 µM,> 10 µM,> 10 µM,> 10 µM,> 10 µM,> 10 µM,> 10 µM,> 10 µM,> 10 µM,> 10 µM
O=C1C(=O)N(c2cccc(C(F)(F)F)c2)C(=S)N1c1ccccc1,30.5 µM,> 100 µM,> 100 µM,> 100 µM,88.8 µM,> 100 µM,8.84 µM,> 100 µM,71.8 µM,86.5 µM
NCCCC[C@H](N)C(=O)Nc1ccc(-c2nc3ccccc3s2)cc1,33.6 µM,47.6 µM,> 100 µM,> 100 µM,33.8 µM,74.3 µM,> 100 µM,29.4 µM,> 100 µM,26 µM
[N-]=[N+]=NC(c1cn(C2CC(O)C(CO)O2)c(=O)[nH]c1=O)C(Cl)I (stereo not given),> 100 µM,> 100 µM,> 100 µM,> 100 µM,> 100 µM,> 100 µM,> 100 µM,> 100 µM,> 100 µM,> 100 µM
COc1ccccc1C1ON=C(c2ccc([N+](=O)[O-])cc2)N1C12CC3CC(CC(C3)C1)C2 (stereo not given),> 100 µM,> 100 µM,> 100 µM,60.4 µM,> 100 µM,> 100 µM,> 100 µM,> 100 µM,> 100 µM,> 100 µM
CS(=O)(=O)c1ccc(N=C/C=C/Nc2ccc(S(C)(=O)=O)cc2)cc1,> 100 µM,> 100 µM,> 100 µM,> 100 µM,> 100 µM,> 100 µM,> 100 µM,> 100 µM,> 100 µM,> 100 µM
CC(C)[C@H](NC(=O)[C@H](N)Cc1ccc(N(CCCl)CCCl)cc1)C(=O)O,> 100 µM,> 100 µM,> 100 µM,> 100 µM,> 100 µM,> 100 µM,> 100 µM,> 100 µM,> 100 µM,> 100 µM
COC(=O)c1cc(C(=CCC[C@H]2CC[C@@]3(C)C(CCC4C3CC[C@@]3(C)C4CC[C@@H]3C(C)CCCC(C)C)C2)c2cc(Cl)c(O)c(C(=O)OC)c2)cc(Cl)c1O (stereo not given in full),> 10 µM,> 10 µM,> 10 µM,> 10 µM,> 10 µM,> 10 µM,> 10 µM,> 10 µM,> 10 µM,> 10 µM
CC(C)NC(=O)N(Nc1ccccc1)C(C)(C)C,> 100 µM,> 100 µM,> 100 µM,> 100 µM,> 100 µM,> 100 µM,> 100 µM,> 100 µM,> 100 µM,> 100 µM
C/C=C(\C)C(O)C(C)C(O)C/C=C(C)/C=C(\C)C/C(C)=C/C/C=C(\C)C(O)C(C)c1ccc(CCC)c(=O)o1 (stereo not given),16.8 µM,37.9 µM,65.4 µM,77.3 µM,32.3 µM,46.2 µM,71.8 µM,24.1 µM,15.2 µM,21 µM
COC(=O)C(Cc1c[nH]c2ccccc12)NC(=O)c1ccc(-c2ccc(Cl)cc2Cl)o1 (stereo not given),> 100 µM,> 100 µM,> 100 µM,> 100 µM,> 100 µM,> 100 µM,> 100 µM,> 100 µM,99.3 µM,> 100 µM
CC1(C)OC(=O)N(c2ccccc2)C12C=Cc1cccc([N+](=O)[O-])c1O2 (stereo not given),> 100 µM,> 100 µM,> 100 µM,> 100 µM,> 100 µM,> 100 µM,> 100 µM,> 100 µM,> 100 µM,> 100 µM
O=C(O)CCSCc1ccccc1,> 100 µM,> 100 µM,> 100 µM,> 100 µM,> 100 µM,> 100 µM,> 100 µM,> 100 µM,> 100 µM,> 100 µM
CN(C)C(c1ccccc1)C1COC2Cc3ccccc3C1O2 (stereo not given),> 100 µM,> 100 µM,> 100 µM,> 100 µM,> 100 µM,> 100 µM,> 100 µM,> 100 µM,> 100 µM,> 100 µM
CC(C)=CCC/C(C)=C/CC/C(C)=C/CC/C(C)=C/CC/C(C)=C/CC/C(C)=C/CC/C(C)=C/CC/C(C)=C/CC/C(C)=C/CO,> 100 µM,> 100 µM,> 100 µM,> 100 µM,> 100 µM,> 100 µM,> 100 µM,> 100 µM,> 100 µM,> 100 µM

# — PubChem BioAssay (NCI)
